Legend:
[1] = molecular target: T1, bovine serum albumin (BSA) (Bos taurus, UniProt P02769); assay: uSTA saturation transfer NMR, Bloch-McConnell fit; type: binding
T1 construct: gene ALB; commercial native protein (Sigma Aldrich), non-modified

[2] = molecular target: T2, E. coli trehalose repressor TreR (Escherichia coli, UniProt P36673); assay: uSTA saturation transfer NMR; type: binding; conditions: weak ligand
T2 sequence (P36673 1-315): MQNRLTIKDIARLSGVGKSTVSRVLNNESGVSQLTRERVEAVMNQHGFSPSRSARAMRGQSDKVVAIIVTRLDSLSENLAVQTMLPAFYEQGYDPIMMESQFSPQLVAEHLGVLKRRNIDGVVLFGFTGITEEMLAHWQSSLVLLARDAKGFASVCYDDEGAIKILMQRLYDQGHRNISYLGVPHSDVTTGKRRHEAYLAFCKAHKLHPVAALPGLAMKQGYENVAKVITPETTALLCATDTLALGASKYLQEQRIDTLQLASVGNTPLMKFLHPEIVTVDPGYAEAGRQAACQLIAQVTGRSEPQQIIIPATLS

T1 sequence (P02769 25-607): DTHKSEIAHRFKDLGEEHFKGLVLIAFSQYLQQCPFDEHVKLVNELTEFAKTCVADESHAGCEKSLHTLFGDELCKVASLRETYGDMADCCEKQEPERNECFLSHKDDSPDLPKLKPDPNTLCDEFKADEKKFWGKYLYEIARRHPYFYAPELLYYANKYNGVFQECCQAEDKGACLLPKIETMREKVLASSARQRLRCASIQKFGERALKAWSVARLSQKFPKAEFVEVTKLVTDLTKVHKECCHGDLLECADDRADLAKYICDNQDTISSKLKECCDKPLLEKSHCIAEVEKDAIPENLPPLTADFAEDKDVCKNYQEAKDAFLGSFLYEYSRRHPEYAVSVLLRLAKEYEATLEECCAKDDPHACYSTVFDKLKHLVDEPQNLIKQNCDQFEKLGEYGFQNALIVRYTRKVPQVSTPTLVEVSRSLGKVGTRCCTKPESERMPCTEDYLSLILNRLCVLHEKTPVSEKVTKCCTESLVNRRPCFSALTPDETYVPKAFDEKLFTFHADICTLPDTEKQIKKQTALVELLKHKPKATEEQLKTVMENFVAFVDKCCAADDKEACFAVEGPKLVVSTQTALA

Row | Kd [1] [µM] | Compound | transfer efficiency [2]
1 | 38 ± 15 | N[C@@H](Cc1c[nH]c2ccccc12)C(=O)O [L-tryptophan] | 
2 |  | OC[C@H]1O[C@H](O[C@H]2O[C@H](CO)[C@@H](O)[C@H](O)[C@H]2O)[C@H](O)[C@@H](O)[C@@H]1O [trehalose] | trehalose (Tre) binds only weakly to trehalose repressor protein TreR

Reference: paper doi:10.1101/2021.04.14.439284v2 (biorxiv, 2021)
